Test results: ChEMBL document CHEMBL1154617, “Synthesis and biological evaluation of 17beta-hydroxysteroid dehydrogenase type 1 (17beta-HSD1) inhibitors based on a thieno[2,3-d]pyrimidin-4(3H)-one core” (J Med Chem, 2009)
pEC50: −log10 of the molar value. Active and inactive are the calls of the source. No cut-off for these calls is given here.

Legend:
[1] = target: T1, 17-beta-hydroxysteroid dehydrogenase type 1 (Homo sapiens) (UniProt P14061); test: Inhibition of human recombinant 17beta-HSD1 at 0.1 uM by cell-free assay; assay type: single protein
T1 sequence (whole entry): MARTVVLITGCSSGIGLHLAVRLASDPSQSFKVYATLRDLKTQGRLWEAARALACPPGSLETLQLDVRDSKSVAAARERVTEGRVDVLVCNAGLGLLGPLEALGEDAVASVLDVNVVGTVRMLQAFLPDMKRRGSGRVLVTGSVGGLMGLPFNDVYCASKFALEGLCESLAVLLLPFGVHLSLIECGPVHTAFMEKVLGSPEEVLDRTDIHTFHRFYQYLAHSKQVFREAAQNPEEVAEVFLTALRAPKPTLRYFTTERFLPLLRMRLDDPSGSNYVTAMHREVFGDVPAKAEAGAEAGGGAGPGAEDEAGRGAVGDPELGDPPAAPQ

[2] = target: T1, 17-beta-hydroxysteroid dehydrogenase type 1 (Homo sapiens); test: Inhibition of human recombinant 17beta-HSD1 expressed in human MCF7 cells at 1 uM by cell-based assay
[3] = target: T2, 17-beta-hydroxysteroid dehydrogenase type 2 (Homo sapiens) (UniProt P37059); test: Inhibition of human recombinant 17beta-HSD2 at 0.1 uM by cell-free assay
T2 sequence (whole entry): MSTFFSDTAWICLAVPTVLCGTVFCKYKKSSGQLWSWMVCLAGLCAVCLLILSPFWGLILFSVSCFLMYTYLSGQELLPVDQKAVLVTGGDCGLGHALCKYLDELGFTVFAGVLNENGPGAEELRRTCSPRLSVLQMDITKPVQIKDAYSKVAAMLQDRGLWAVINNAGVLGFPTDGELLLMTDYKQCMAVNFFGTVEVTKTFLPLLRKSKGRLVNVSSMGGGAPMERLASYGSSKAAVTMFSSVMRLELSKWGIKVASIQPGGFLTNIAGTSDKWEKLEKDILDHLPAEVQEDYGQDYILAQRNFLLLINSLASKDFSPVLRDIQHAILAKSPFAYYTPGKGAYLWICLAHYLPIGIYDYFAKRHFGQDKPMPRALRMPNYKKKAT

[4] = target: T2, 17-beta-hydroxysteroid dehydrogenase type 2 (Homo sapiens); test: Inhibition of human recombinant 17beta-HSD2 at 1 uM by cell-free assay
[5] = target: T1, 17-beta-hydroxysteroid dehydrogenase type 1 (Homo sapiens); test: Inhibition of human recombinant 17beta-HSD1 expressed in human MCF7 cells at 0.1 uM by cell-based assay
[6] = target: T1, 17-beta-hydroxysteroid dehydrogenase type 1 (Homo sapiens); test: Inhibition of human recombinant 17beta-HSD1 at 1 uM by cell-free assay; assay type: single protein
[7] = target: Estrogen receptor beta (Homo sapiens, UniProt Q92731); test: Activity at human recombinant ERbeta by fluorescence polarization assay
[8] = target: T3, Estrogen receptor (Homo sapiens, UniProt P03372); test: Activity at human recombinant ERalpha by fluorescence polarization assay
T3 sequence (P03372 whole entry): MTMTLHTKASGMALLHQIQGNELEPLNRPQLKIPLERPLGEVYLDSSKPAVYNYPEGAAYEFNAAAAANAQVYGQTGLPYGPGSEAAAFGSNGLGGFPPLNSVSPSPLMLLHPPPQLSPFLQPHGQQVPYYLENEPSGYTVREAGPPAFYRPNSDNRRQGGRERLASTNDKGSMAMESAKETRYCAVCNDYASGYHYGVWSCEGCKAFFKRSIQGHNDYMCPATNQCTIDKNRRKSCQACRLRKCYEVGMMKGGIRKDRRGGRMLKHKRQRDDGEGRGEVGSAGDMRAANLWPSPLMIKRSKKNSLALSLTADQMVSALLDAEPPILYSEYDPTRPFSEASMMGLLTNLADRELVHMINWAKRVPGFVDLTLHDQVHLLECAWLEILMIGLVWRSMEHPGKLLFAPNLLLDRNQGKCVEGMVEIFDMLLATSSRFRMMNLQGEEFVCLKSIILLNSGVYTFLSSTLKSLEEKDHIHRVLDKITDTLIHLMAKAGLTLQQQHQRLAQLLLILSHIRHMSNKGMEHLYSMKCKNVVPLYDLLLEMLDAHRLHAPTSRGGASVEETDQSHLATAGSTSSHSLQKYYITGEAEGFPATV

Sequence of Estrogen receptor beta (Q92731 whole entry): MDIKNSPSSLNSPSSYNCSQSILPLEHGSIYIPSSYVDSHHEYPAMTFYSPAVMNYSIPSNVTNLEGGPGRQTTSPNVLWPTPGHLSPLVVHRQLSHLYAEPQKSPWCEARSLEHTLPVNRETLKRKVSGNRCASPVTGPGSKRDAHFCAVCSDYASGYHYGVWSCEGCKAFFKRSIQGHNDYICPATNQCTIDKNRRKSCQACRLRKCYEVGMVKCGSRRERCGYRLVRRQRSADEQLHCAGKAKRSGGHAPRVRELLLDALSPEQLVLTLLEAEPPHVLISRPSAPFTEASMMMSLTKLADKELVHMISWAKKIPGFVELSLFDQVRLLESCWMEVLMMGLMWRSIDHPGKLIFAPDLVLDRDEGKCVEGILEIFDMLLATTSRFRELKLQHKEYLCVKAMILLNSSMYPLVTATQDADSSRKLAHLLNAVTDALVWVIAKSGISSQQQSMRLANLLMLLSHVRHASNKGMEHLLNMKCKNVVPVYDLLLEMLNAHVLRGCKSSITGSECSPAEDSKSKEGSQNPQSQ

SMILES	inhibition [1]	inhibition [2] [%]	inhibition [3]	inhibition [4]	inhibition [5] [%]	inhibition [6] [%]	pEC50 [7]	pEC50 [8]
O=CC1=C(Sc2ccccc2O)c2sc3nc4n(c(=O)c3c2CC1)CCCCC4	85.6%	90.1	32.6%	71.6%	18.2	91.3		
CCCSC1=C(/C=N/O)CCc2c1sc1nc3n(c(=O)c21)CCCCC3	0.1%		19.7%	41.1%		2.9		
Cc1ccc(SC2=C(C=O)CCc3c2sc2nc4n(c(=O)c32)CCCCC4)cc1	47%	69.4	8.2%	32.1%	18.9	80.6		
O=CC1=C(Sc2ccc3ccccc3c2)c2sc3nc4n(c(=O)c3c2CC1)CCCCC4	55.2%		19%	40.1%		64		
O=c1c2c3c(sc2nc2n1CCCCC2)CCCC3	8%	45.9			10	23.2		
CCCSC1=C(C=O)CCCc2c1sc1nc3n(c(=O)c21)CCCCC3	35.2%	100	inactive	inactive	43.9	87		
O=c1c2c3c(sc2nc2n1CCCCC2)C(Cl)=C(CO)CC3	14.5%	36.2			25.9	39.9		
O=c1c2c3c(sc2nc2n1CCCCC2)C(Cl)=C(/C=N/O)CC3	4.1%	15.1			14	17.9		
O=CC1=C(Sc2cccc(O)c2)c2sc3nc4n(c(=O)c3c2CC1)CCCCC4	94.2%	84.1	40.9%	48.1%	52.6	96.5	< 6.00	< 6.00
O=CC1=C(Sc2ccc(O)cc2)c2sc3nc4n(c(=O)c3c2CC1)CCCCC4	58.5%	76.8	21.7%	22.6%	36.5	1.8		
O=CC1=C(Sc2ccccc2)c2sc3nc4n(c(=O)c3c2CC1)CCCCC4	63.3%					85.1	< 5.00	< 5.00
CCCSC1=C(C=O)CCc2c1sc1nc3n(c(=O)c21)CCCCCC3	63.3%	57	31.4%	36.9%	15.6	74.7	< 6.00	< 6.00
CCCCSC1=C(C=O)CCc2c1sc1nc3n(c(=O)c21)CCCCC3	67.6%	100	inactive	7.8%	54.1	93.4		
O=CC1=C(SC2CCCC2)c2sc3nc4n(c(=O)c3c2CC1)CCCCC4	46.6%	80.5	inactive	inactive	40.3	87.4	< 6.00	< 5.00
CCCSC1=C(C=O)CCc2c1sc1ncn(C)c(=O)c21	24.3%	48.2	12.9%	17.4%	19.5	55.8		
O=CC1=C(Sc2ccncc2)c2sc3nc4n(c(=O)c3c2CC1)CCCCC4	79.2%		10.5%	13.7%		87.2		
O=CC1=C(Cl)c2sc3nc4n(c(=O)c3c2CCC1)CCCCC4								< 5.00
O=CC1=C(SCC(=O)N2CCOCC2)c2sc3nc4n(c(=O)c3c2CC1)CCCCC4	4%	39.4	3.9%	3.1%	3.9	7.8		

SMILES	inhibition [1]	inhibition [2] [%]	inhibition [3]	inhibition [4]	inhibition [5] [%]	inhibition [6] [%]	pEC50 [7]	pEC50 [8]
CC(C)(C)SC1=C(C=O)CCc2c1sc1nc3n(c(=O)c21)CCCCC3	49.8%	87	inactive	1.2%	33.6	89.6	< 6.00	< 5.00
O=CC1=C(Sc2ccc(F)cc2)c2sc3nc4n(c(=O)c3c2CC1)CCCCC4	87.4%	27.4	17%	27.4%	17.3	91.9		
CCCSC1=C(C=O)CCc2c1sc1nc3n(c(=O)c21)CCCCC3	72.9%	100	inactive	5.3%	74	95.2	< 6.00	< 6.00
O=Cc1ccc2c(sc3nc4n(c(=O)c32)CCCCC4)c1Sc1ccccc1	26.9%	87.9	inactive	inactive	15.1	88.4	< 6.00	< 6.00
CCSC1=C(C=O)CCc2c1sc1nc3n(c(=O)c21)CCCCC3	71.3%	100	inactive	2%	66.1	94.5		
O=c1c2c(nc3n1CCCCC3)sc1c(Sc3ccccc3)c(CO)ccc12	80.5%	46.9	30.8%	37.3%	30.5	87.5		
CC(C)SC1=C(C=O)CCc2c1sc1nc3n(c(=O)c21)CCCCC3	64.7%	100	inactive	inactive	71.9	92.9		
CCCSC1=C(/C=C/C(C)=O)CCc2c1sc1nc3n(c(=O)c21)CCCCC3	1.1%	8.9			8.4	13.9		
CCCSc1c(CO)ccc2c1sc1nc3n(c(=O)c12)CCCCC3	69%	78.6	13.6%	20.6%	35.6	85.9		
O=CC1=C(Sc2ccc(C(=O)O)cc2)c2sc3nc4n(c(=O)c3c2CC1)CCCCC4	3.8%					22.1		
COc1ccc(SC2=C(C=O)CCc3c2sc2nc4n(c(=O)c32)CCCCC4)cc1	89%	71.6	8.6%	53%	24.6	89.8		
CCCSC1=C(C=O)CCc2c1sc1nc3n(c(=O)c21)CCC3	16.7%					67.2		
O=C1CCCc2c1sc1nc3n(c(=O)c21)CCCC3	inactive	35.8			6.3	3.8		
O=CC1=C(Cl)c2sc3nc4n(c(=O)c3c2CC1)CCC4	3.3%	38.6			19.7	26.1		
O=CC1=C(SC2CCCCC2)c2sc3nc4n(c(=O)c3c2CC1)CCCCC4	51.2%	63.9	inactive	inactive	32.7	82.2	< 6.00	< 5.00
O=CC1=C(SCc2ccccc2)c2sc3nc4n(c(=O)c3c2CC1)CCCCC4	7.2%		25.8%	62.2%		30.7		
O=CC1=C(SCCC(=O)O)c2sc3nc4n(c(=O)c3c2CC1)CCCCC4	0.3%					2.8		
CCCSc1c(C=O)ccc2c1sc1nc3n(c(=O)c12)CCCCC3	83%	86.4	3.8%	12.7%	28.5	90.6		
